According to PMC8568133, “Evaluation of bisphenylthiazoles as a promising class for combating multidrug-resistant fungal infections” (PLoS ONE, 2021):
Converted amounts (≈) assume the structure as drawn. Like-named read-outs stand apart in the source and are kept apart here.

Columns and labels:
[1] = tested on: E. coli JW55031 (tolC-mutant); experiment: microbe, parasite or virus in culture; type: cell-based, Escherichia coli; conditions: Escherichia coli
Description: (§1) The minimum inhibitory concentrations (MICs) of the tested compounds and control drugs against clinically-relevant bacterial strains were determined using the broth microdilution method, according to guidelines outlined by the Clinical and Laboratory Standards Institute (CLSI), or as described previously.
(§2) Initial screening of the bisphenylthiazoles against Gram-positive and Gram-negative bacteria. Bacterial strains, (except C. difficile that was grown anaerobically on brain heart infusion supplemented agar at 37° C for 48 hours), were grown aerobically overnight on tryptone soy agar plates at 37° C. Afterwards, a bacterial solution equivalent to 0.5 McFarland standard was prepared and diluted in cation-adjusted Mueller-Hinton broth (CAMHB) (for S. aureus, and E. coli) to achieve a bacterial concentration of about 5 × 10^5 CFU/mL. C. difficile was diluted in brain heart infusion supplemented broth, supplemented with yeast extract, hemin and vitamin K to achieve a bacterial concentration of about 5 × 10^5 CFU/mL. Compounds and control drugs were added in the first row of the 96 -well plates, and serially diluted with the corresponding media containing bacteria. Plates were then, incubated aerobi cally at 37° C for 18-20 hours (for S. aureus and E. coli). C. difficile was incubated anaerobically at 37° C for 48 hours. […]
(§3) the visual growth of bacteria.

[2] = GSH trap (reactive metabolite); type: in vitro ADME; conditions: reactive metabolite formation
[3] = tested on: human colorectal cells (Caco-2); experiment: In vitro cytotoxicity, MTS assay; conditions: human, 24 h
Description: (§4) Fig 2 In vitro cytotoxicity assay of bisphenylthiazole compounds 7, 16 and 17 (tested in triplicates at 32, 64 and 128 μg/mL) against: A) human colorectal cells (Caco-2), and B) monkey kidney epithelial cells (Vero) after 24-hours exposure time, using the MTS 3-(4,5-dimethylthiazol-2-yl)-5-(3-carboxymethoxyphenyl)-2-(4-sulfophenyl)-2H-tetrazolium) assay. The data represent the percentage of viable Caco-2 or Vero cells measured as the average absorbance relative to DMSO after exposure to the tested compounds. Dimethyl sulfoxide (DMSO) was used as a negative control. Error bars represent the standard deviation values.
(§5) To explore the tolerability of bisphenylthiazoles, their cytotoxicity profile was assessed in human colorectal adenocarcinoma (Caco-2) and monkey kidney epithelial cells (Vero) as described earlier. Briefly, compounds were incubated with the cells for 24 hours. Then, cells were incubated with MTS reagent for 3 hours before measuring the absorbance values (OD490). The experiment was repeated in two independent times.

[4] = tested on: monkey kidney epithelial cells (Vero); experiment: In vitro cytotoxicity, MTS assay; conditions: Vero, 24 h exposure, MTS
Description: as §4, §5

[5] = tested on: E. coli BW25113 (wild-type); experiment: Broth microdilution MIC, initial antibacterial screening; type: cell-based, Escherichia coli; conditions: Escherichia coli, read-out: MIC
Description: as §1, §2, §3

[6] = tested on: C. difficile ATCC BAA1870; experiment: Broth microdilution MIC, initial antibacterial screening (anaerobic); type: cell-based, Clostridioides difficile; conditions: Clostridioides difficile, ATCCBAA1870, read-out: MIC
Description: as §1, §2, §3

Candida parapsilosis = experiment: Antifungal broth microdilution MIC (50% growth inhibition); type: cell-based; conditions: Lodderomyces parapsilosis, read-out: MIC
Description: (§6) Serial dilutions (from 128 μg/mL to 0.06 μg/mL) of the tested compounds and control drugs (fluconazole, itraconazole and amphotericin) (in triplicates), were screened against clinical isolates of Candida albicans, Candida auris, Candida glabrata, Candida parapsilosis, Candida tropicalis, Candida krusei, Cryptococcus neoformans, Cryptococcus gattii and Aspergillus fumigatus species using the broth microdilution method according to the Clinical and Laboratory Standards Institute guidelines. MICs were determined as the lowest concentration of the compounds that inhibited the fungal growth by 50% after incubation at 35 °C for 24 h (for Candida and Aspergillus), or 48 h (for Cryptococcus). The minimum fungicidal concentration (MFC) of these compounds was tested by plating 4 μL from wells with no growth onto YPD agar plates. The plates were incubated at 37 °C for 24 hours before recording the MFC, which was categorized as the lowest concentration that reduced fungal growth by 99.9% [45]. The experiment was repeated three independent times.

Aspergillus fumigatus = experiment: as above; type: cell-based; conditions: Aspergillus fumigatus, read-out: MIC
Description: as §6

Candida glabrata = experiment: Antifungal broth microdilution MIC (50% growth inhibition) and MFC; type: cell-based; conditions: Nakaseomyces glabratus, read-out: MIC
Description: as §6

Candida krusei = experiment: as above; type: cell-based; conditions: Pichia kudriavzevii; for MIC: read-out: MIC
Description: as §6

Candida albicans = experiment: as above; type: cell-based; conditions: Candida albicans; for MIC: read-out: MIC
Description: as §6

Candida tropicalis = experiment: as above; type: cell-based; conditions: Candida tropicalis, ATCC1369, C. tropicalis ATCC 1369; for MIC: read-out: MIC
Description: as §6

Candida auris [7] = experiment: as above; type: cell-based
Description: as §6

[8] = tested on: Lactobacillus crispatus HM-370; experiment: Broth microdilution MIC against normal human microbiota; type: cell-based; conditions: HM370
Description: (§7) Broth microdilution was utilized to determine the activity of bisphenylthiazoles against the human gut microflora as described elsewhere. A bacterial solution equivalent to 0.5 McFarland standards was prepared and diluted in MRS broth to achieve a bacterial concentration of approximately 5 x 10^5 CFU/mL. Then, compounds/control antifungals (in triplicates), were added to the plates and serially diluted with media containing bacteria. The plates were incubated for 48 hours at 37 °C before recording the MIC values. The experiment was repeated three independent times.

[9] = tested on: Lactobacillus casei ATCC-334; experiment: as above; type: cell-based; conditions: Lacticaseibacillus casei, ATCC334
Description: as §7

[10] = tested on: Lactobacillus gasseri HM-400; experiment: as above; type: cell-based; conditions: HM400
Description: as §7

Cryptococcus neoformans = experiment: Antifungal broth microdilution MIC (50% growth inhibition, 48 h); type: cell-based; conditions: Cryptococcus neoformans, read-out: MIC
Description: as §6

Cryptococcus gattii = experiment: as above; type: cell-based; conditions: Cryptococcus gattii, read-out: MIC
Description: as §6

MRSA USA300 = experiment: Broth microdilution MIC, initial antibacterial screening; type: cell-based, S. aureus; conditions: Staphylococcus aureus; MRSA USA300; read-out: MIC
Description: as §1, §2, §3

Candida auris [11] = experiment: Checkerboard assay of compound 17 with standard antifungals; type: cell-based; conditions: for Interpretation of interaction: antifungal combined with compound 17; for MIC Combined, Antifungal: antifungal in combination with compound 17; for MIC: Candidozyma auris, checkerboard, agent alone
Description: To evaluate the interactions between bisphenylthiazoles and the standard antifungal agents (fluconazole, amphotericin B, 5-fluorocytosine and caspofungin) against 2 C. auris clinical isolates, a standard checkerboard assay was utilized as described in previous studies. The fractional inhibitory concentration index (FICI) was calculated for each interaction. Interactions where the FICI was ≤0.5 were categorized as synergistic (SYN). FICI values of >0.5–1.25 were categorized as additive (ADD). FICI values of >1.25–4 were categorized as indifferent, and FICI values of > 4 were categorized as antagonistic. The experiment was repeated three independent times.

Candida strains = experiment: Minimum fungicidal concentration, summary over Candida strains; type: cell-based; conditions: strains of Table 6
Description: as §6

[12] = ATCC22019, C. parapsilosis ATCC 22019
[13] = ATCC34135, C. krusei ATCC 34135
[14] = ATCC10231, C. albicans ATCC 10231
[15] = C. albicans NR-29448 (fluconazole-resistant)
[16] = Candidozyma auris, C. auris 381, read-out: MIC
[17] = Candidozyma auris, C. auris 382, read-out: MIC
[18] = Candidozyma auris, C. auris 387, read-out: MIC
[19] = Candida auris 381 (azole-sensitive)
[20] = Candida auris 385 (azole-resistant)

Cc1nc(-c2ccc(-c3ccccc3)cc2)sc1-c1nnc(NCCN)o1 [Compound 7, N-{5-[2-((1,1’-Biphenyl)-4-yl)-4-methylthiazol-5-yl]-1,3,4-oxadiazol-2-yl}ethane-1,2-diamine]
melting point: 145 to 146 °C
MIC [1]: 64 mg/L (≈ 170 µM)
GSH trap [2]: -ve
concentration up to which non-toxic [3]: ≤ 64 µg/mL
concentration up to which non-toxic [4]: ≤ 64 µg/mL
MIC [5]: > 64 mg/L
MIC [6]: > 64 mg/L
MIC (Candida parapsilosis; [12]): 2 mg/L (≈ 5.3 µM)
MIC (Candida parapsilosis; C. parapsilosis CAB 502638): 2 mg/L (≈ 5.3 µM)
MIC (Aspergillus fumigatus; A. fumigatus NR 35303): 16 mg/L (≈ 42.4 µM)
MIC (Aspergillus fumigatus; A. fumigatus NR 35304): 8 mg/L (≈ 21.2 µM)
MIC (Candida glabrata; ATCC66032, C. glabrata ATCC 66032): 2 mg/L (≈ 5.3 µM)
MIC (Candida glabrata; C. glabrata ATCC MYA-2950): 1 mg/L (≈ 2.65 µM)
MIC (Candida krusei; [13]): 2 mg/L (≈ 5.3 µM)
MIC (Candida krusei; C. krusei CAB 396420): 2 mg/L (≈ 5.3 µM)
MIC (Candida albicans; [14]): 8 mg/L (≈ 21.2 µM)
MIC (Candida albicans; [15]): 16 mg/L (≈ 42.4 µM)
MIC (Candida albicans; C. albicans SS5314 (wild-type)): 4 mg/L (≈ 10.6 µM)
MIC (Candida tropicalis): 8 mg/L (≈ 21.2 µM)
MIC (Candida auris [7]; [16]): 8 mg/L (≈ 21.2 µM)
MIC (Candida auris [7]; [17]): 8 mg/L (≈ 21.2 µM)
MIC (Candida auris [7]; Candidozyma auris, C. auris 383, read-out: MIC): 2 mg/L (≈ 5.3 µM)
MIC (Candida auris [7]; Candidozyma auris, C. auris 384, read-out: MIC): 4 mg/L (≈ 10.6 µM)
MIC (Candida auris [7]; Candidozyma auris, C. auris 385, read-out: MIC): 4 mg/L (≈ 10.6 µM)
MIC (Candida auris [7]; Candidozyma auris, C. auris 386, read-out: MIC): 8 mg/L (≈ 21.2 µM)
MIC (Candida auris [7]; [18]): 8 mg/L (≈ 21.2 µM)
MIC (Candida auris [7]; Candidozyma auris, C. auris 388, read-out: MIC): 4 mg/L (≈ 10.6 µM)
MIC (Candida auris [7]; Candidozyma auris, C. auris 389, read-out: MIC): 8 mg/L (≈ 21.2 µM)
MIC (Candida auris [7]; Candidozyma auris, C. auris 390, read-out: MIC): 2 mg/L (≈ 5.3 µM)
MIC ([8]; Lactobacillus crispatus HM-370, read-out: MIC): > 128 mg/L
MIC ([9]; Lactobacillus casei ATCC-334, read-out: MIC): > 128 mg/L
MIC ([10]; Lactobacillus gasseri HM-400, read-out: MIC): 64 mg/L (≈ 170 µM)
MIC (Cryptococcus neoformans; C. neoformans NR 41298): 2 mg/L (≈ 5.3 µM)
MIC (Cryptococcus neoformans; C. neoformans NR 41300): 4 mg/L (≈ 10.6 µM)
MIC (Cryptococcus neoformans; C. neoformans NR 48770): 2 mg/L (≈ 5.3 µM)
MIC (Cryptococcus gattii; C. gattii NR 43209): 2 mg/L (≈ 5.3 µM)
MIC (Cryptococcus gattii; C. gattii NR 43210): 2 mg/L (≈ 5.3 µM)
MIC (MRSA USA300): 32 mg/L (≈ 84.8 µM)

OC(Cn1cncn1)(Cn1cncn1)c1ccc(F)cc1F [Fluconazole, reference compound]
Interpretation of interaction (Candida auris [11]; [19]): ADD (FICI values of >0.5–1.25 were categorized as additive (ADD))
MIC Combined, Antifungal (Candida auris [11]; [19]): 1 mg/L
Interpretation of interaction (Candida auris [11]; [20]): ADD (FICI values of >0.5–1.25 were categorized as additive (ADD))
MIC Combined, Antifungal (Candida auris [11]; [20]): 0.25 mg/L
MIC (Candida auris [11]; [19]): 1 mg/L
MIC (Candida auris [11]; [20]): > 128 mg/L
fungistatic or fungicidal activity (Candida strains): fungistatic
MIC (Candida parapsilosis; [12]): 1 mg/L (≈ 3.27 µM)
MIC (Candida parapsilosis; C. parapsilosis CAB 502638): 0.5 mg/L (≈ 1.63 µM)
MIC (Candida krusei; [13]): 16 mg/L (≈ 52.2 µM)
MFC (Candida krusei; C. krusei CAB 396420): > 128 mg/L
MIC (Candida krusei; C. krusei CAB 396420): 16 mg/L (≈ 52.2 µM)
MFC (Candida albicans; [14]): > 128 mg/L
MIC (Candida albicans; [14]): 1 mg/L (≈ 3.27 µM)
MIC (Candida albicans; [15]): > 128 mg/L
MIC (Candida albicans; C. albicans SS5314 (wild-type)): 1 mg/L (≈ 3.27 µM)
MFC (Candida albicans; C. albicans NR-29448): > 128 mg/L
MFC (Candida tropicalis): > 128 mg/L
MIC (Candida tropicalis): 0.5 mg/L (≈ 1.63 µM)
MIC (Candida auris [7]; C. auris 383): >128 mg/L
MIC (Candida auris [7]; C. auris 384): >128 mg/L
MIC (Candida auris [7]; C. auris 385): >128 mg/L
MIC (Candida auris [7]; C. auris 386): >128 mg/L
MIC (Candida auris [7]; C. auris 389): >128 mg/L
MIC (Candida auris [7]; C. auris 390): >128 mg/L
MFC (Candida auris [7]; Candida auris 390): >128 mg/L
MIC (Candida auris [7]; [16]): 1 mg/L (≈ 3.27 µM)
MIC (Candida auris [7]; [17]): 8 mg/L (≈ 26.1 µM)
MIC (Candida auris [7]; [18]): 8 mg/L (≈ 26.1 µM)
MFC (Candida auris [7]; Candidozyma auris, Candida auris 389, read-out: MFC): > 128 mg/L
MIC ([8]; Lactobacillus crispatus): > 128 mg/L
MIC [9]: > 128 mg/L
MIC ([10]; Lactobacillus gasseri): > 128 mg/L
MIC (Cryptococcus neoformans; C. neoformans NR 41298): 2 mg/L (≈ 6.53 µM)
MIC (Cryptococcus neoformans; C. neoformans NR 41300): 1 mg/L (≈ 3.27 µM)
MIC (Cryptococcus neoformans; C. neoformans NR 48770): 2 mg/L (≈ 6.53 µM)
MIC (Cryptococcus gattii; C. gattii NR 43209): 4 mg/L (≈ 13.1 µM)
MIC (Cryptococcus gattii; C. gattii NR 43210): 4 mg/L (≈ 13.1 µM)
